Reference: patent US12233129B2, “Methods and compositions for the treatment of cancer” (priority 2019, dated 2025)
“Also recorded” adds a separate entry of the source.

Tested on: SW-48 (WT-p53) colon cancer cells
Assay: Cell viability / clonogenic survival with and without mot-2 inhibitor MKT-077
Type: cell-based, human
Parameters: dose or concentration left out as unconfirmed
Protocol: We decided to confirm whether VTD-induced tumor suppression is indeed mediated via the UBXN2A-mot-2-p53 axis (FIG. 18H). After initial verification with WB (FIG. 18A), HCT-116 (p53+/+ and p53 −/−) and LoVo were treated with VTD for 24, 48, and 72 hours (FIG. 18B-D). […] We defined this phenomenon as a delayed cytotoxic response, since it occurs through UBXN2A transcription, as previously described for other anti-cancer agents. […] In the second set of experiments, we treated two stable UBXN2A silenced clones of HCT-116 along with controls with VTD. […] Staurosporine-treated cells were used as a positive control (S4F). […] Finally, to understand the contribution of mot-2 to the anti-cancer mechanism of VTD, we used a mot-2 inhibitor known as MKT-077 [7] along with VTD in well-differentiated SW-48 (WT-p53) colon cancer cells for 72 hours. Due to the critical role of mot-2 in the mitochondria, we could not use a silencing strategy for mot-2 in this set of experiments.
FIG. 18: Veratridine (VTD) functions via the UBXN2A-mot-2-p53 axis. (A) WB confirmed the presence and the absence of p53 protein in HCT-116 p53^(+/+) and HCT-116 p53^(−/−) cancer cell lines, respectively. […] (F) In another set of experiments, UBXN2A-silenced cells were treated with VTD (100, 200, and 300 μM) for 24 hours. Cells were then labelled with Sytox Red followed by flow cytometry analysis. […] (G) SW48 well-differentiated colon cancer cells with WT-p53 were treated with MKT-077 (5 mg/ml), an mot-2 inhibitor, along with VTD for 72 hours. […] (H) This flowchart recapped the sequence of proteins which activate and function upon VTD exposure to decrease cell viability. The data is shown as mean±SEM of three independent experiments (n=3) in triplicate where *p<0.05 using Benferroni's modified student's t-test.

## COc1ccc(C(=O)O[C@H]2CC[C@@]3(C)[C@@H]4CC[C@H]5[C@]6(O)C[C@H](O)[C@@]7(O)[C@@H](CN8C[C@@H](C)CC[C@H]8[C@@]7(C)O)[C@]6(O)C[C@@]53O[C@]24O)cc1OC [VTD, Veratridine]
VTD alone, 72 hours
  cell viability / colony number: significantly decreased cell viability in a dose-dependent manner; also recorded: signifcantly decreases the colony number
VTD with mot-2 inhibitor MKT-077, 72 hours
  cell viability / colony number: no significant effect on cell viability
